Some test systems named below: A498 renal; SK-MEL-2 melanoma; LOX IMVI melanoma; ACHN renal; OVCAR-8 ovarian; SW-620 colon; NCI-H226 lung; HCT-15 colon; MALME-3M melanoma; OVCAR-5 ovarian.
Holding throughout (experiment): NCI-60 cell line screen, 48 h

Structures are written as SMILES.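 Each compound was tested at five concentrations against cells in 96-well plates for 48 hours. GI50: concentration for 50% inhibition of growth. TGI is the concentration that stops growth completely.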 Some results are limits rather than exact numbers.

Take `O=C(O)CNCc1c2ccccc2[n+]([O-])c2ccccc12`: the TGI in the experiment with A498 renal, in the experiment with SK-MEL-2 melanoma, in the experiment with LOX IMVI melanoma, with ACHN renal, with OVCAR-8 ovarian and with SW-620 colon was over 100 µM each time. Also, the TGI in the experiment with NCI-H226 lung, with HCT-15 colon, in the experiment with MALME-3M melanoma and with OVCAR-5 ovarian was over 100 µM in each case.
Take `CSc1sc(=S)sc1SC`: the TGI is over 100 µM with A498 renal; over 31.6 µM in the experiment on SK-MEL-2 melanoma; over 100 µM in the experiment on LOX IMVI melanoma; over 100 µM with OVCAR-8 ovarian; over 100 µM with SW-620 colon; over 100 µM in the experiment with NCI-H226 lung. Also, the TGI in the experiment on HCT-15 colon, with MALME-3M melanoma and in the experiment on OVCAR-5 ovarian was over 100 µM throughout.
Take `COc1cc2c3c(c4cc(OC)c(OC)cc4c2cc1OC)[C@H](O)[C@@H]1CCCN1C3`: the TGI was 0.234 µM in the experiment on SK-MEL-2 melanoma; 2.75 µM in the experiment on LOX IMVI melanoma; 0.3 µM in the experiment with ACHN renal; over 100 µM with SW-620 colon; 3.64 µM with NCI-H226 lung; 5.45 µM in the experiment with HCT-15 colon. Also, the values for the TGI with MALME-3M melanoma and in the experiment with OVCAR-5 ovarian were 6.69 µM and 0.732 µM, respectively.
Regarding `O=C(O)C(Br)Cc1ccc2c(c1)OCO2` (stereo not drawn), the TGI with A498 renal, with SK-MEL-2 melanoma, with ACHN renal, in the experiment on SW-620 colon, with HCT-15 colon and in the experiment with MALME-3M melanoma was over 100 µM throughout. Also, the TGI in the experiment with OVCAR-5 ovarian was over 100 µM.
Regarding `COC(=O)c1nc2c3c(cccc3c1C(=O)OC)Nc1ccccc1-2`, the TGI in the experiment on A498 renal was over 100 µM; with SK-MEL-2 melanoma, 71.8 µM; with LOX IMVI melanoma, over 100 µM; with ACHN renal, over 100 µM; in the experiment with SW-620 colon, over 100 µM; in the experiment with NCI-H226 lung, over 100 µM. Besides, the TGI is 93 µM in the experiment with MALME-3M melanoma and over 100 µM with OVCAR-5 ovarian.
In the case of `CC1(C)N=C(N)N=C(N)N1c1cccc(OCc2cccc([N+](=O)[O-])c2)c1`, the TGI with A498 renal, in the experiment with SK-MEL-2 melanoma, in the experiment with LOX IMVI melanoma, in the experiment on ACHN renal, in the experiment on OVCAR-8 ovarian and in the experiment with SW-620 colon was over 100 µM in each case. Besides, the TGI with NCI-H226 lung, with HCT-15 colon, with MALME-3M melanoma and with OVCAR-5 ovarian was over 100 µM in each case.
For the compound `C=CC(c1ccccc1)C1(O)c2cccc(O)c2C(=O)c2c(O)cccc21` (stereo not drawn), the TGI was 34.6 µM with A498 renal; 26.4 µM in the experiment with SK-MEL-2 melanoma; 29.9 µM in the experiment with LOX IMVI melanoma; 31.9 µM in the experiment on ACHN renal; 43 µM in the experiment with OVCAR-8 ovarian; 37 µM with SW-620 colon. In addition, the TGI in the experiment with NCI-H226 lung came to 39.8 µM; in the experiment on HCT-15 colon, 29.4 µM; with OVCAR-5 ovarian it was 54.2 µM.
In the case of `CCCCCCCCCCCCCCCCOCCCOP(=O)(O)C1CCCN(O)C1=O` (stereo not drawn), the GI50 in the experiment with A498 renal was 1.73 µM; in the experiment on SK-MEL-2 melanoma, 5.95 µM; with LOX IMVI melanoma it was 2.86 µM; in the experiment with ACHN renal it was 3.2 µM; in the experiment on OVCAR-8 ovarian, 3.29 µM; in the experiment on SW-620 colon it was 1.47 µM. Besides, the GI50 was 2.1 µM with NCI-H226 lung, 0.472 µM with HCT-15 colon, 2.64 µM in the experiment with MALME-3M melanoma and 1.63 µM in the experiment on OVCAR-5 ovarian. For the same compound, the TGI was determined as 12.4 µM in the experiment with A498 renal; 24.6 µM in the experiment on SK-MEL-2 melanoma; 11.4 µM in the experiment with LOX IMVI melanoma; 14.2 µM in the experiment with ACHN renal; 27.8 µM with OVCAR-8 ovarian; 22.3 µM in the experiment on SW-620 colon. Moreover, the TGI is 14.3 µM with NCI-H226 lung, 12.1 µM in the experiment on HCT-15 colon, 10.8 µM in the experiment with MALME-3M melanoma and 18.6 µM in the experiment on OVCAR-5 ovarian.
For `S=C1NN=C2C(=C3CCCC4C5CCCCC5N2C34)N1` (stereo not drawn), the TGI in the experiment with LOX IMVI melanoma, in the experiment on ACHN renal, in the experiment on OVCAR-8 ovarian, with SW-620 colon, in the experiment on NCI-H226 lung and with HCT-15 colon was over 100 µM throughout. Besides, the TGI in the experiment with MALME-3M melanoma and in the experiment on OVCAR-5 ovarian was over 100 µM each time.
For `O=C1c2ccccc2C(=O)c2c(O)c(O)cc(O)c21`, the TGI in the experiment on A498 renal is over 100 µM; in the experiment with SK-MEL-2 melanoma, 69.1 µM; with LOX IMVI melanoma, over 100 µM; in the experiment on ACHN renal it was over 100 µM; with OVCAR-8 ovarian, over 100 µM; in the experiment on SW-620 colon it was over 100 µM. The TGI in the experiment on HCT-15 colon, in the experiment on MALME-3M melanoma and with OVCAR-5 ovarian was over 100 µM in each case.
On to `C/C(=C\COP(=O)(O)OP(=O)(O)O)CC/C=C(\C)CNc1ccc([N+](=O)[O-])cc1`, for which the TGI in the experiment on SK-MEL-2 melanoma, in the experiment on LOX IMVI melanoma, in the experiment on ACHN renal, with OVCAR-8 ovarian, with SW-620 colon and in the experiment with NCI-H226 lung was over 100 µM in each case. For the same compound, the TGI with HCT-15 colon, in the experiment with MALME-3M melanoma and with OVCAR-5 ovarian was over 100 µM throughout.
Consider `COc1ccc2c(c1)/C(=C\c1cccc(/C=C3/C(=O)Nc4ccc(OC)cc43)n1)C(=O)N2`, for which the TGI in the experiment with A498 renal was 6.03 µM; in the experiment on SK-MEL-2 melanoma it was 15.5 µM; in the experiment on LOX IMVI melanoma it was 1.24 µM; in the experiment on ACHN renal it was 5.41 µM; with OVCAR-8 ovarian, over 25.4 µM; with SW-620 colon, 7.92 µM. Besides, the TGI in the experiment on NCI-H226 lung is 4.16 µM; in the experiment on HCT-15 colon it was over 25.1 µM; in the experiment on MALME-3M melanoma, 5.51 µM; in the experiment on OVCAR-5 ovarian, 3.74 µM. In the experiment on NCI-H226 lung, the GI50 was 1.54 µM.

Values taken from PubChem BioAssay (NCI).
